Common to all, as to assay type: biochemical
The target of assay [1] is T1, collagenase (MMP-1) (Homo sapiens, UniProt P03956).
T1 sequence (P03956 100-469): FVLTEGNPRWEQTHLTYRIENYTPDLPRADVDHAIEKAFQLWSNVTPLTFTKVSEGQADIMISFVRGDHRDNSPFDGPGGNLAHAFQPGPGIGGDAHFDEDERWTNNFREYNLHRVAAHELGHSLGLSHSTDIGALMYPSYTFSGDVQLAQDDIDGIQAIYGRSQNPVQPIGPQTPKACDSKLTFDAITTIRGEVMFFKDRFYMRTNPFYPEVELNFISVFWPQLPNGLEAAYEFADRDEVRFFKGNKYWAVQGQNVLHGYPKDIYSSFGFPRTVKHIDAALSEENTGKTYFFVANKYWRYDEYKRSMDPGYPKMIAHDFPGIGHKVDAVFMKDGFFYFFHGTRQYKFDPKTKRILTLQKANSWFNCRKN
Nature of the assay: MMP-1 enzyme inhibition assay (coumarin-labelled peptide substrate). As to conditions: @ 5 μM; read-out: percentage inhibition MMP1. As to the method: (§1) Compounds of the invention were tested to assess their activities as inhibitors of MMP-1, MMP-2, MMP-9, MMP-14, MMP-12 and TACE. MMP-9 Assay Protocol
(§2) Compounds of the invention were tested for inhibitory activity against 92 kDa gelatinase (MMP-9) in an assay using a coumarin-labeled peptide substrate, (7-methoxycoumarin-4-yl)acetyl-Pro-Leu-Gly-Leu-(3-[2,4-dinitrophenyl]-L-2,3diaminopropionyl)-Ala-Arg-NH2 (McaPLGLDpaAR) (Knight et al, FEBS Lett. 1992; 263-266).
(§3) Stock solutions were made up as follows: Assay Butter: 100 mM Tris-HCl pH 7.6 containing 100 mM NaCl, 10 mM CaCl2, and 0.05% Brij 35.
(§4) Substrate: 0.4 mM McaPLGLDpaAR (from Bachem) (0.437 mg/ml) stock solution in 100% DMSO (stored at −20° C.). Dilute to 8 μM in assay butter.
(§5) Enzyme: Recombinant human 92 kDa gelatinase (MMP-9; APMA (4-aminophenyl mercuric acetate)-activated if necessary) appropriately diluted in assay butter.
(§6) Test Compounds were prepared initially as 10 mM compound solution in 100% DMSO, diluted to 1 mM in 100% DMSO, then serially diluted 3-fold in 100% DMSO across columns 1-10 of a 96-well microtitre plate Assay concentration range, 100 μM (column 1) to 5.1 nM (column 10).
(§7) The assay was performed in a total volume of 100 μL per well in 96-well microtitre plates. Activated enzyme (20 μL) was added to the wells followed by 20 μL of assay butter. Appropriate concentrations of test compounds dissolved in 10 μL of DMSO were then added followed by 50 μL of McaPLGLDpaAR (8 μM, prepared by dilution of DMSO stock in assay butter). For each as say ten concentrations of test compound were examined in duplicate. Control wells lack either enzyme or test compound. The reactions were incubated at 37° C. for 2 hours. The fluorescence at 405 nm was measured immediately with an SLT Fluostar fluorometer (SL T Labinstruments GmbH, Grödig, Austria) using 320 nm excitation, without stopping the reaction.
(§8) The effect of the test compound was determined from the dose response curve generated by the 10 duplicate concentrations of inhibitor. The IC50 (the concentration of compound required to give a 50% decrease in enzyme activity) was obtained by fitting data to the equation, Y=a+((b−a)/(1+(c/X)^d)). (Y=inhibition achieved for a particular dose; X=the dose in nM; a=minimum y or zero % inhibition; b=maximum y or 100% inhibition; c=is the IC50; d=is the slope). The result was rounded to one significant figure.
Compounds of the invention were tested for inhibitory activity against collagenase (MMP-1) in an assay using a coumarin-labelled peptide substrate, (7-methoxycoumarin-4-yl)acetyl-Pro-Leu-Gly-Leu-(3-[2,4-dinitrophenyl]-L-2,3diaminopropionyl)-Ala-Arg-NH2 (Mca PLGLDpaAR) (Knight et al, 1992, above). The protocol for this assay was as described for the MMP-9 assay above.

In assay [2] the target is T2, gelatinase A (MMP-2) (Homo sapiens, UniProt P08253).
T2 sequence (P08253 110-660): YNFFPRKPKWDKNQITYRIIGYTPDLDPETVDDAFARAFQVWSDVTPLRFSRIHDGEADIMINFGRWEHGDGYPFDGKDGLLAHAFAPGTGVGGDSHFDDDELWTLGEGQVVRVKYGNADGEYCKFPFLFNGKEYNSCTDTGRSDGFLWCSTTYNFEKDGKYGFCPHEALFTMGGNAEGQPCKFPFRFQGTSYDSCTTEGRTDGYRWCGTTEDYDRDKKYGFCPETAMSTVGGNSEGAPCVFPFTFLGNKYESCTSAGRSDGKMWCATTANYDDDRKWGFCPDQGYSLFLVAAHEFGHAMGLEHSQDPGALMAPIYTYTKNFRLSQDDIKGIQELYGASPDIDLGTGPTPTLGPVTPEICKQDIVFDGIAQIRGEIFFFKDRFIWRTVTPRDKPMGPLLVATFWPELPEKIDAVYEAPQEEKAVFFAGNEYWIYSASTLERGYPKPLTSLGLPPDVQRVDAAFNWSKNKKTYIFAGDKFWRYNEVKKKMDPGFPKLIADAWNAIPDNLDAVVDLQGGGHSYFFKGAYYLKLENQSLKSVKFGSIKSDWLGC
The experiment in a line: MMP-2 enzyme inhibition assay (coumarin-labelled peptide substrate). As to conditions: read-out: IC50 MMP2. As to the method: Compounds of the invention were tested to assess their activities as inhibitors of MMP-1, MMP-2, MMP-9, MMP-14, MMP-12 and TACE. MMP-9 Assay Protocol […]
as §3
Substrate: 0.4 mM McaPLGLDpaAR (from Bachem) (0.437 mg/ml) stock solution in 100% DMSO (stored at −20° C.). Dilute to 8 μM in assay butter. […]
as §6, §7, §8
Compounds of the invention were tested for inhibitory activity against gelatinase A (MMP-2) in an assay using a coumarin-labelled peptide substrate, (7-methoxycoumarin-4-yl)acetyl-Pro-Leu-Gly-Leu-(3-[2,4-dinitrophenyl]-L-2,3diaminopropionyl)-Ala-Arg-NH2 (Mca PLGLDpaAR) (Knight et al, 1992, above). The protocol for this assay was as described for the MMP-9 assay above.

Assay [3] concerns the target 92 kDa gelatinase (MMP-9) (Homo sapiens, UniProt P14780). The experiment in a line: MMP-9 enzyme inhibition assay (coumarin-labeled peptide substrate). To be noted: read-out: IC50 MMP9. As for the experimental part:
as §1, §2, §3, §4, §5, §6, §7, §8

Assay [4] concerns the target metalloelastase (MMP-12) (Homo sapiens, UniProt P39900). Nature of the assay: MMP-12 enzyme inhibition assay (coumarin-labelled peptide substrate). As to conditions: read-out: IC50 MMP12. As to the method:
as §1, §2, §3, §4, §5, §6, §7, §8
Compounds of the invention were tested for inhibitory activity against metalloelastase (MMP-12) in an assay using a coumarin-labelled peptide substrate, (7-methoxycoumarin-4-yl)acetyl-Pro-Leu-Gly-Leu-(3-[2,4-dinitrophenyl]-L-2,3-diaminopropionyl)-Ala-Arg-NH2 (McaPLGLDpaAR) (Knight et al, 1992, above). The protocol for this assay was as described for the MMP-9 assay above.

Assay [5] addresses MMP13 (Homo sapiens, UniProt P45452). The experiment in a line: MMP13 inhibition (Table 1). As to conditions: read-out: percentage inhibition MMP13.
Assay [6] deals with MMP-14 (Homo sapiens, UniProt P50281). The experiment in a line: MMP-14 enzyme inhibition assay (coumarin-labelled peptide substrate). As to conditions: @ 5 μM; read-out: percentage inhibition MMP14. As to the method:
as §1, §2, §3, §4, §5, §6, §7, §8
Compounds of the invention were tested for inhibitory activity against MMP-14 in an assay using a coumarin-labelled peptide substrate, (7-methoxycoumarin-4-yl)acetyl-Pro-Leu-Gly-Leu-(3-[2,4-dinitrophenyl]-L-2,3diaminopropionyl)-Ala-Arg-NH2 (Mca PLGLD paAR) (Knight et al, 1992, above). The protocol for this assay was as described for the MMP-9 assay above.

This is an account of results in US7879876B2, “Sulfonamide derivatives and use thereof for the modulation of metalloproteinases” (Merck Serono SA, priority 2005, dated 2011).

Structures are written as SMILES. pIC50: −log10 of the molar value.

Chain of 92 kDa gelatinase (MMP-9) (P14780 107-707 limits assumed): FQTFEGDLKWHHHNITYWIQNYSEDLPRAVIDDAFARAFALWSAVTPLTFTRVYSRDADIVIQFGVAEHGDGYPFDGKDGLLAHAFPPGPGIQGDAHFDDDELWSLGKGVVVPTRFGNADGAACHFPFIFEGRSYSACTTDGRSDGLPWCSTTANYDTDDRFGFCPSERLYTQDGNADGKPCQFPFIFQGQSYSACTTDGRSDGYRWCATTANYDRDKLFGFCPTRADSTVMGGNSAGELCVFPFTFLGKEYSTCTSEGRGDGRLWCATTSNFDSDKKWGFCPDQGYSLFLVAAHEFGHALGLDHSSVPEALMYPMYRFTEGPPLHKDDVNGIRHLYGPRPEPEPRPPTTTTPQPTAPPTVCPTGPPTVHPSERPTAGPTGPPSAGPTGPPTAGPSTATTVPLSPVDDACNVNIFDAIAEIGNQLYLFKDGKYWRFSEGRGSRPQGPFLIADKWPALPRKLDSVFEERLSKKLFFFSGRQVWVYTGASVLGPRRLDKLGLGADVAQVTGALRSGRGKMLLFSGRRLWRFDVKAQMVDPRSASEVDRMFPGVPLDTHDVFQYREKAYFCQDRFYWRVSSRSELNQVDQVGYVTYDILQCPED
Chain of metalloelastase (MMP-12) (P39900 106-470): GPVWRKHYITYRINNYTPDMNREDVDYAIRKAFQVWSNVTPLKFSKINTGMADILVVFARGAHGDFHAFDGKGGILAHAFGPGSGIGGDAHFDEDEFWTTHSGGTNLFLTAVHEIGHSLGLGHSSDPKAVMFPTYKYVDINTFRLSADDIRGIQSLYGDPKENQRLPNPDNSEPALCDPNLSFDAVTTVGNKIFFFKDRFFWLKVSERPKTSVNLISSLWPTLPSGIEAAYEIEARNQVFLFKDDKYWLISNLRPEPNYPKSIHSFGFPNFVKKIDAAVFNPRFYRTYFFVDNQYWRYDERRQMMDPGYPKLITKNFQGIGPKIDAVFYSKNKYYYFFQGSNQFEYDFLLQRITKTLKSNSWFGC

Usually inhibition stands for how much of the control response was suppressed. For orientation: pIC50 means the IC50 on a negative log10 scale, so that one unit is a factor of ten. As for `O=CN(O)C(CS(=O)(=O)N1CCc2ccccc2C1)c1cccs1` (stereo not shown) [Example 5, N-[2-(3,4-dihydroisoquinolin-2(1H)-ylsulfonyl)-1-(2-thienyl)ethyl]-N-hydroxyformamide], the inhibition at 5 µM in assay [1] turned out to be 32%; in assay [5], 97%; in assay [6], 70%. Moreover, the pIC50 in assay [2] is 6.12; in assay [3] it was less than 5.30; in assay [4] it was 7.80. Besides, the inhibition at 0.1 µM in assay [5] (@ 0.1 μM) was 16%.

In the case of `CC(C)(C(CS(=O)(=O)N1CCc2ccccc2C1)N(O)C=O)N1CCOCC1` (stereo not shown) [Example 8, N-{1-[(3,4-dihydroisoquinolin-2(1H)-ylsulfonyl)methyl]-2-methyl-2-morpholin-4-ylpropyl}-N-hydroxyformamide], the inhibition at 5 µM in assay [1] came to 5%; in assay [5], 41%; in assay [6], 8%. The pIC50 is less than 5.30 in assay [2], less than 5.30 in assay [3] and 6.20 in assay [4].
